Measured values as given in patent US9644037B2, “Antibodies that specifically bind ataxia telangiectasia-mutated and RAD3-related kinase phosphorylated at position 1989 and their use” (THE UNITED STATES OF AMERICA, AS REPRESENTED BY THE …, priority 2013, dated 2017).

Legend:
pT68-Chk2 = assay: Immunoblot of ATR-Chk1 response to Top1 inhibitors with or without VE-821: Chk2; format: cell-based; details: for phosphorylation of Chk2 (threonine 68): Top1 inhibitor treatment
Protocol: Briefly, cell lysates were electrophoresed on 4-20% Tris-glycine or 3-8% Tris-acetate polyacrylamide gels, and transferred onto nitrocellulose membranes. Antibodies against GAPDH, ATR and […]-Chk1 were obtained from Cell Signaling Technologies, γH2AX and […]-Chk2 from Abcam and Top1 from BD Biosciences. The antibody against […]-ATR is disclosed above. After incubation with secondary antibody, signals were detected by enhanced chemiluminescence (Pierce).

pT1989-ATR = assay: Immunoblot of ATR-Chk1 response to Top1 inhibitors with or without VE-821: ATR; format: cell-based; details: for phosphorylation of ATR (threonine 1989): Top1 inhibitor treatment, 0, 4, 8, 18 h after removal
Protocol: (§1) For these studies, auto-phosphorylation of ATR on threonine 1989, a DNA damage activation site (Nam et al., J Biol Chem 2011; 286(33):28707-14; Liu et al., Molecular cell 2011; 43(2):192-202), was determined, as well as Chk1 phosphorylation on serine 345, which is mediated by ATR. Histone H2AX phosphorylation was also determined on serine 139 (γH2AX), a validated pharmacodynamic biomarker for DNA damage and apoptosis (Bonner et al., Nat Rev Cancer 2008; 8(12):957-67; Kinders et al., Clin Cancer Res 2010; 16(22):5447-57; Solier et al., Mol Cell Biol 2009; 29(1):68-82).
(§2) Briefly, cell lysates were electrophoresed on 4-20% Tris-glycine or 3-8% Tris-acetate polyacrylamide gels, and transferred onto nitrocellulose membranes. Antibodies against GAPDH, ATR and pS345-Chk1 were obtained from Cell Signaling Technologies, γH2AX and pT68-Chk2 from Abcam and Top1 from BD Biosciences. The antibody against pT1989-ATR is disclosed above. After incubation with secondary antibody, signals were detected by enhanced chemiluminescence (Pierce).

γH2AX = assay: Immunoblot of ATR-Chk1 response to Top1 inhibitors with or without VE-821: γH2AX; format: cell-based; details: for phosphorylation of H2AX (γH2AX): Top1 inhibitor treatment
Protocol: as §1, §2

pS345-Chk1 = assay: Immunoblot of ATR-Chk1 response to Top1 inhibitors with or without VE-821: Chk1; format: cell-based; details: for phosphorylation of Chk1 (serine 345): Top1 inhibitor treatment
Protocol: as §1, §2

phospho-ATR (pT1989) = assay: Western blot of phospho-ATR (pT1989) in drug-treated cells; format: cell-based, human
Protocol: Cell growth was monitored 2-3 weeks after fusion. Hybridoma supernatants were screened by standard colorimetric ELISA against BSA-conjugated peptides as described in section C. The screening process consisted of a Primary screen on 40 plates (using bleed 2 of E5571 at 1:100 dilution as a Positive control) clones (44) with O.D. greater than 0.5 were considered putatively positive and were further expanded to 24-well plate. Confirmatory screen was performed and 6 clones were confirmed positive against phospho-specific peptides (Table 4). Additional screening was performed by ELISA using the same assay as for bleed screening (FIG. 5). Western blotting was done on selected clones #7, 27 and 35 for subcloning (FIG. 6). DLD-1 cells and DLD-1 Seckel cells with and without gemcitabine treatment (100 nM for 4 h) were lysed with cell extraction buffer (Invitrogen, catalog # FNN0011). Lysates were run on NUPAGE® NOVEX® 3-8% gels (Invitrogen, catalog # EA0378BOX) and transferred to nitrocellulose membranes (Invitrogen catalog # IB3010-01) using the IBLOT® apparatus from Invitrogen. Blots were blocked with Licor ODYSSEY® blocking buffer (LiCor, catalog #927-40010) and incubated overnight with hybridoma supernatants (1:30). Blots were then washed with PBS-T (0.05% TWEEN®) and incubated with Licor goat anti-rabbit IR-680 antibody for 1 h at room temperature. Blots were then washed with phosphate-buffered saline with 0.05% TWEEN®-20 (PBS-T) and scanned at 700 nm on Licor ODYSSEY® scanner.
Details for lysate preparation and Western blotting are given in Example I, section E. The antibody detected a single band at about 250 kDa consistent with the predicted molecular weight (MW) for ATR. The antibody also detected an increase in phospho-ATR (pT1989) upon gemcitabine (SIGMA) treatment which is known to increase ATR activity (Mol. Pharmacol. (2005), 68, 1636-1644). Finally, an isogenic pair of DLD-1 cells was used.
Cells were treated for 4 hours with either vehicle (DMSO, 0.01%), 150 nM Gemcitabine (Sigma), 1 uM ATR inhibitor VE-821 or combination of drugs. The antibody detected a single band at about 250 kDa consistent with the predicted MW for ATR. The antibody also detected an increase in phospho-ATR (pT1989) upon Gemcitabine treatment, which is known to increase ATR activity (Molecular Pharmacology (2005) 68, 1636-1644). […] Lysates were prepared in buffer as follows: 0.94 ml RIPA buffer, 40 μl Protease Inhibitor Cocktail (25× stock, Roche Cat#11697498001), 10 μl Phosphatase Inhibitor (Roche Cat#04906845001) and 10 μl PMSF (Sigma cat#93482). Lysates were sonicated prior to use. Lysates were run on 3-8% Tris-Acetate gels from NOVEX® (Invitrogen, Cat# EA0378BOX) and transferred to nitrocellulose membranes using the IBLOT® transfer apparatus, program setting P3, 20V, 13 min. Blots were blocked with Licor ODYSSEY® blocking buffer and incubated overnight with Clone 7 hybridoma supernatant (1:30). B lots were then washed with PBS-T (0.05% Tween) and incubated with Licor goat anti-rabbit IR-680 antibody for 1 h at room temperature. […]
For these studies, DLD-1 parental and DLD-1 Seckel (Horizon) cells were treated with gemcitabine for 4 hours. Clone 7A7 detected ATR in the parental DLD-1 cell lysate by Western blotting and detects an increase in pT1989-ATR with gemcitabine treatment as expected. In contrast, the level of pT-1989 detected by clone 7A7 was much lower in the DLD-1 Seckel cells which have suppressed ATR expression.

[1] = tested on: ATR-pT1989 foci in A2780 xenografts; assay: pATR T1989 immunofluorescence assay in A2780 xenografts; format: in vivo, mice; details: 1.2 or 6.0 mg/kg intraperitoneally; 4, 7 and 24 hours; dose and time dependent
Protocol: In vivo studies were performed. A2780 xenografts were evaluated in mice treated with 1.2 mg/kg cisplatin or 6.0 mg/kg cisplatin for 4, 7 and 24 hours. […] The following methods were used in these studies:
Xenograft Samples and In Vivo Quantitation: Athymic nu/nu mice were implanted with A2780 cells as previously described (Kinders et al., Clin Cancer Res 2010:16(22):5447-57). Xenograft quadrants were collected and flash frozen from mice following exposure to vehicle (0.9% saline) or various doses (1.2, 6.0 mg/kg) of cisplatin administered intraperitoneally. The samples were fixed in neutral-buffered formalin and paraffin-embedded as previously described (Kinders et al., Clin Cancer Res 2010; 16(22):5447-57). Animal care was provided in accordance with the procedures outlined in the “Guide for Care and Use of Laboratory Animals” (National Research Council; 1996; National Academy Press; Washington, D.C.), and all studies were conducted under an approved Animal Care and Use Committee protocol. […]
Quantitative Marker Analysis: The DEFINIENS TISSUE STUDIO® (Version 2.0.3; Build 2057) software program was used for analysis of foci count/nucleus. For the analysis, fields were scored first for the number of nuclei and then individual counts of the number of foci count/per nucleus were performed. […]

[2] = tested on: ATR phosphorylation at pT1989; assay: ATR-pT1989 IFA on FFPE pellets of drug-treated cells; format: cell-based, human
Protocol: Formalin fixed paraffin embedded (FFPE) pellets were generated using cells expressing WT ATR (HT29, DLD-1 Parental) or mutated ATR (DLD-1 Seckel (Horizon)), with and without gemcitabine (SIGMA) treatment to induce ATR phosphorylation at pT1989 (Mol. Pharmacol. 2005, 68, 1636-1644). Cells were harvested by trypsinization, transferred into a sterile 50 ml conical centrifuge tubes with media containing 10% serum and pelleted at 1000×g for 5 minutes. Medium was replaced with fresh serum containing medium and centrifuged again at 1000×g, 5 minutes. All but 1 ml (approximately) of medium was removed and the pellet was re-suspended by flicking the tube. Suspended cells were transferred using a 2 ml pipette into a clean 1.5 ml conical Eppendorf tube. Cells were pelleted for 30 seconds at 8,000 rpm in an Eppendorf micro centrifuge. The supernatant was discarded leaving approximately 100-200 ul behind. The cell pellet was loosened by gently flicking the tube and Thrombin stock (8 ul of 1 unit/ul water, Sigma #T-7009) was added. The cells were mixed briefly by gently flicking the tube then held on ice for 2-5 minutes. Fibrinogen stock (5 ul of at 10 mg/ml water, Sigma #F-3879) was added, and the tube was incubated for 2-5 minutes at room temperature. Clotted cells were pelleted by a brief centrifuge for 20 seconds at 10K. […]

[3] = VE-821 with Top1 inhibitor (CPT or LMP-400)

## CC[C@@]1(O)C(=O)OCc2c1cc1n(c2=O)Cc2cc3ccccc3nc2-1 [CPT]
pT68-Chk2
  phosphorylation of Chk2 (threonine 68): quickly induced the rapid phosphorylation
pT1989-ATR
  phosphorylation of ATR (threonine 1989): delayed and best detectable after drug removal
γH2AX
  phosphorylation of H2AX (γH2AX): quickly induced the rapid phosphorylation
pS345-Chk1
  phosphorylation of Chk1 (serine 345): quickly induced the rapid phosphorylation

## COc1cc2c3c(n(CCCN4CCOCC4)c(=O)c2cc1OC)-c1cc2c(cc1C3=O)OCO2 [LMP-400]
pT68-Chk2
  phosphorylation of Chk2 (threonine 68): quickly induced the rapid phosphorylation
pT1989-ATR
  effects on checkpoint phosphorylation relative to CPT: more pronounced effects than CPT
  phosphorylation of ATR (threonine 1989): delayed and best detectable after drug removal
γH2AX
  phosphorylation of H2AX (γH2AX): quickly induced the rapid phosphorylation
pS345-Chk1
  phosphorylation of Chk1 (serine 345): quickly induced the rapid phosphorylation

## CS(=O)(=O)c1ccc(-c2cnc(N)c(C(=O)Nc3ccccc3)n2)cc1 [VE-821]
phospho-ATR (pT1989); 1 uM VE-821 combined with 150 nM gemcitabine, 4 hours, HT-29 and LoVo
  phospho-ATR (pT1989) level by Western blot compared to gemcitabine alone: reduced
phospho-ATR (pT1989); 1 uM alone, 4 hours, HT-29 and LoVo
  phospho-ATR (pT1989) level by Western blot compared to vehicle: did not affect
pT68-Chk2; [3]
  Chk2 phosphorylation: without reducing Chk2 phosphorylation
pT1989-ATR; [3]
  phosphorylation of ATR: inhibited the phosphorylation
γH2AX; [3]
  γH2AX induction over time: strongly induced
pS345-Chk1; [3]
  phosphorylation of Chk1: inhibited the phosphorylation

## N.N.[Cl][Pt][Cl] [cisplatin]
[1]
  ATR foci in treated samples compared to vehicle: increase in ATR foci

## Nc1ccn([C@@H]2O[C@H](CO)[C@@H](O)C2(F)F)c(=O)n1 [gemcitabine]
phospho-ATR (pT1989); 150 nM, 4 hours, HT-29 and LoVo
  phospho-ATR (pT1989) level by Western blot: increase
phospho-ATR (pT1989); 4 hours, parental DLD-1 cells
  pT1989-ATR level by Western blot: increase
phospho-ATR (pT1989); gemcitabine treatment, HT-29, LoVo and DLD-1 lysates
  phospho-ATR (pT1989) level by Western blot: increase
[2]; FFPE HT29, DLD-1 cells
  signal intensity for pT1989 staining compared to untreated cells: higher signal intensity
[2]; HT29 cells, 150 nM, 4 hrs or 24 hrs
  signal intensity for pT1989 staining compared to untreated cells: higher signal intensity
